Results as given in patent publication US20130109698A1, “Small Molecule Inhibitors of Functions of the HIV-1 Matrix Protein” (priority 2010, published 2013).

Tests used:
Vaccinia = assay type: cell-based; conditions: up to 100 μM
yellow fever = assay type: cell-based; conditions: up to 100 μM
HIV-1 93IN101 = test: Anti-HIV efficacy in human PBMCs, reverse transcriptase activity; assay type: cell-based; conditions: HIV-1 93IN101, PBMCs; for IC50 / IC90: Human immunodeficiency virus 1, PBMC
Method: (§1) HIV human peripheral blood mononuclear cell (PBMC) assays were performed as described previously (Lanier et al., 2010, Antimicrob Agents Chemother 54:2901-2909 and Ptak et al., 2008, Antimicrob Agents Chemother 52:1302-1317). Briefly, fresh PBMCs, seronegative for HIV and hepatitis B virus (HBV), were isolated from blood samples of the screened donors (Biological Specialty Corporation, Colmar, Pa.) by using lymphocyte separation medium (LSM; density, 1.078±0.002 g/ml; Cellgro; Mediatech, Inc.) by following the manufacturer's instructions. Cells were stimulated by incubation in 4 μg/mL phytohemagglutinin (PHA; Sigma) for 48 to 72 h. Mitogenic stimulation was maintained by the addition of 20 U/mL recombinant human interleukin-2 (rhIL-2; R&D Systems, Inc.) to the culture medium. PHA-stimulated PBMCs from at least two donors were pooled, diluted in fresh medium, and added to 96-well plates at 5×10^4 cells/well. Cells were infected (final multiplicity of infection [MOI] of ≅0.1) in the presence of nine different concentrations of test compounds (triplicate wells/concentration) and incubated for 7 days. To determine the level of virus inhibition, cell-free supernatant samples were collected for analysis of reverse transcriptase activity (Buckheit et al., 1991, AIDS Res Hum Retroviruses 7:295-302). Following removal of supernatant samples, compound cytotoxicity was measured by the addition of 3-(4,5-dimethylthiazol-2-yl)-5-(3-carboxymethoxy-phenyl)-2-(4-sulfophenyl)-2H-tetrazolium (MTS; CellTiter 96 reagent; Promega) by following the manufacturer's instructions.

HIV-1 92BR030 = test: as above; assay type: cell-based; conditions: HIV-1 92BR030, PBMCs; for IC50 / IC90: Human immunodeficiency virus 1, PBMC
Method: as §1

Chikungunya = test: Antiviral spectrum: cytopathic effect assay; assay type: cell-based
HIV-1 CMU08 Subtype E = test: Anti-HIV efficacy in human PBMCs; assay type: cell-based; conditions: for IC50 / IC90: Human immunodeficiency virus 1, PBMC, PBMCs
Method: as §1

HIV-1 BCF02 Group O = test: Anti-HIV efficacy in human PBMCs; assay type: cell-based; conditions: for IC50 / IC90: Human immunodeficiency virus 1, PBMC; for IC50 / IC90 / Antiviral index (TC50/IC50): BCF02 Group O
Method: as §1

HIV-1 G3 Subtype G = test: Anti-HIV efficacy in human PBMCs; assay type: cell-based; conditions: for Antiviral index (TC50/IC50): G3 Subtype G; for IC50 / IC90: Human immunodeficiency virus 1, PBMC
Method: as §1

HIV-1 93BR020 Subtype F = test: Anti-HIV efficacy in human PBMCs; assay type: cell-based; conditions: for IC50 / IC90: Human immunodeficiency virus 1, PBMC, PBMCs
Method: as §1

[1] = system: respiratory syncytial virus; test: Antiviral spectrum: cytopathic effect assay; assay type: cell-based
[2] = system: luciferase-reporter HIV-1 NL4-3 pseudotyped with HxBc2 envelope produced in 293T cells; test: microbe, parasite or virus in culture
HIV-1 NL4-3 = test: Antiviral activity of additional compounds (Tables 6 and 7); assay type: cell-based
Method: as §1

HIV-1 Ba-L = test: as above; assay type: cell-based
Method: as §1

PBMCs = test: Compound cytotoxicity in PBMCs (MTS); assay type: cell-based, human; conditions: Tables 6 and 7 study; read-out: TC50 (the source's name)
Method: as §1

HIV-1 IIIB = test: Infection of Sup-T1 cells by HIV-1 IIIB, p24 ELISA; conditions: 50 μM, three days
[3] = Human immunodeficiency virus 1, NL43
[4] = Human immunodeficiency virus 1, BAL

SMILES | inhibitory effects on replication (Vaccinia) | inhibitory effects on replication (yellow fever) | Antiviral index (TC50/IC50) (HIV-1 93IN101) | IC50 (HIV-1 93IN101) | IC90 (HIV-1 93IN101) | Antiviral index (TC50/IC50) (HIV-1 92BR030) | IC50 (HIV-1 92BR030) | IC90 (HIV-1 92BR030) | inhibitory effects on replication (Chikungunya) | Antiviral index (TC50/IC50) (HIV-1 CMU08 Subtype E) | IC50 (HIV-1 CMU08 Subtype E) | IC90 (HIV-1 CMU08 Subtype E) | IC50 (HIV-1 BCF02 Group O; PBMCs) | IC90 (HIV-1 BCF02 Group O; PBMCs) | Antiviral index (TC50/IC50) (HIV-1 G3 Subtype G) | IC50 (HIV-1 G3 Subtype G) | IC90 (HIV-1 G3 Subtype G) | Antiviral index (TC50/IC50) (HIV-1 93BR020 Subtype F) | IC50 (HIV-1 93BR020 Subtype F) | IC90 (HIV-1 93BR020 Subtype F) | other results
Cc1ccc(NC(=O)CN2CCN(Cc3nc(-c4ccc(F)cc4)no3)CC2)cc1 [CMPD-7, 2-(4-((3-(4-fluorophenyl)-1,2,4-oxadiazol-5-yl)methyl)piperazin-1-yl)-N-(p-tolyl)acetamide] | no inhibitory effects | no inhibitory effects | > 6.13 | 16.3 µM | > 100 µM | > 10.72 | 9.33 µM | > 100 µM | no inhibitory effects | >10.4 | 9.64 µM | 99.7 µM | > 100 µM | > 100 µM | >9.36 | 10.7 µM | 30.2 µM | >6.42 | 15.6 µM | > 100 µM | activity against the group O isolate HIV-1BCF02, in words (HIV-1 BCF02 Group O; over the concentrations tested, PBMCs): no activity; inhibitory effects on replication [1]: no inhibitory effects; IC50 [2]: 28 µM
O=C(CNC(=O)COc1ccccc1)NCc1ccc(C(=O)N2CCCCC2)cc1 [CMPD-14, N-(2-oxo-2-((4-(piperidine-1-carbonyl)benzyl)amino)ethyl)-2-phenoxyacetamide] | no inhibitory effects | no inhibitory effects | > 5.56 | 18 µM | 62.1 µM | > 4.51 | 22.2 µM | 68.6 µM | no inhibitory effects | >6.27 | 16 µM | 59.5 µM | 21.9 µM | 45 µM | >4.88 | 20.5 µM | 29.2 µM | >4.93 | 20.3 µM | 32.6 µM | Antiviral index (TC50/IC50) (HIV-1 NL4-3): > 2.53; IC50 (HIV-1 NL4-3; [3]): 39.6 µM; IC90 (HIV-1 NL4-3; [3]): > 100 µM; Antiviral index (TC50/IC50) (HIV-1 Ba-L): > 3.13; IC50 (HIV-1 Ba-L; [4]): 32 µM; IC90 (HIV-1 Ba-L; [4]): > 100 µM; Antiviral index (TC50/IC50) (HIV-1 BCF02 Group O): >4.57; inhibitory effects on replication [1]: no inhibitory effects; IC50 [2]: 95 µM; CC50 (PBMCs): > 100 µM
CCOc1ccc(NC(=O)Cc2cn3ccsc3n2)cc1S(=O)(=O)N1CCCCC1 [CMPD-18, N-(4-ethoxy-3-(piperidin-1-ylsulfonyl)phenyl)-2-(imidazo[2,1-b]thiazol-6-yl)acetamide] | no inhibitory effects | no inhibitory effects | 3.00 | 30.8 µM | 85.2 µM | 3.95 | 23.4 µM | 94 µM | no inhibitory effects | >5.00 | 15.9 µM | 95 µM | 27.2 µM | 75.6 µM | >10.9 | 5.73 µM | 21 µM | >3.39 | 18.5 µM | 54.1 µM | Antiviral index (TC50/IC50) (HIV-1 BCF02 Group O): >2.30; HIV-1 replication (p24), in words (HIV-1 IIIB): inhibited; inhibitory effects on replication [1]: no inhibitory effects; IC50 [2]: > 100 µM
